According to US11041013B2, “Methods of preparation and composition of peptide constructs useful for treatment of rheumatoid arthritis” (Cel-Sci Corporation, priority 2008, dated 2021):

What was measured:
[1] = system: collagen induced arthritis (CIA); experiment: CIA model, arthritis index (AI) score; type: in vivo, DBA/1J mice; details: for progression of disease, as indicated by AI scores: two treatments of 33 nmoles in ICFA adjuvant, Enbrel 3 mg/kG daily for the first 14 days; for effectiveness in the murine CIA model of RA relative to SEQ ID NO. 99: studies 1-5 and FIGS. 1-4
Protocol: The following five studies are of CEL-2000 therapeutic vaccine for collagen induced arthritis (CIA) where the first step was to identify a good animal model for testing the vaccine, which is the collagen induced arthritis (CIA) model in young (6-7) week old male DBA/1J mice. These mice received 2 injections of bovine collagen the first in complete Freund's adjuvant (CFA) on day 0 and then 3 weeks later on day 21, in Incomplete CFA. After the second collagen injection, the mice were evaluated daily for any joint swelling or redness. Each of the paws was scored on a 4 point scale (arthritis index Arthritis Index (AI)) with respect to the number of digits with symptoms and the thickness of the paw measured, at least 3-4 times a week. Each mouse was weighed weekly.
The first study is the CIA model CEL-2000 therapeutic vaccination conjugate specificity effect on AI scores (study 4.1 see FIG. 1 and legend). When significant disease is noted, usually about day 28, the mice are grouped (n=8) with a range of scores between 1 and 6 and group mean of 2.5 to 3. At this point the therapy begins according to protocol. Controls include groups with induced disease but no therapy and groups of healthy mice without induced disease. A therapy control of Enbrel (3 mg/kG daily) was included. In this study (FIG. 1), mice received two treatments of 33 nmoles (for CEL-2000 equivalent to 4.8 mg/kG) of CEL-2000, (the same dose as used for the L.E.A.P.S. HSV vaccines), or other conjugates of the same collagen peptide used in CEL-2000 using the same ICBLs as in the HSV or EAM systems for comparison using a GMP grade ICFA adjuvant.
AI scores are evaluations on a scale of 0=normal to 4=maximal effect of joint thickening, redness, immobilization of joints in a digit or total paw for each of the 4 paws in the CIA mouse model of rheumatoid arthritis.
Treatment started when group score was 3.5. This was done to have all groups starting with same score, as opposed to the range between […] seen in the first study. The same dose of Enbrel as was used in the first study but was given every other day for the entire study period of 28 days.

[2] = system: collagen induced arthritis (CIA); experiment: CIA model, histopathology of right rear feet; type: in vivo, DBA/1J mice; details: for disease pathology compared statistically with untreated CIA mice: Enbrel: 14 days after cessation of therapy, 3×CEL-2000: 3 weeks after immunization; for histopathology: bone resorption / histopathology: cartilage damage / histopathology: inflammation / histopathology: pannus: hind paw and ankle, Enbrel for 14 days, CEL-2000 100 nmol on days 0 and 7
Excerpt: The fourth study is for the CIA model CEL-2000 therapeutic vaccination; histopathology (study 4.4 see FIG. 4 and legend). At the termination of the experiments the animals were euthanized, the right rear feet were collected and stored individually in buffered formalin to be fixed in preparation for paraffin embedding, sectioning, staining and analysis. The feet in buffered formalin were sent for processing, reading and plotting of the data (representative sections from mid group specimens were photographed).
The pathologists scored the feet for disease pathology in 4 areas: inflammation, pannus, cartilage and bone. FIG. 4 is a summary plot of the analysis performed cores of the 4 areas from the following groups: Control no disease; CIA disease: CIA Disease Enbrel daily for 14 days continued for 2 more weeks before termination: CEL-2000 and CEL-2001 groups (vaccinated on day 0 and 7) from study 1 (FIG. 1) and from study 2 (FIG. 2) 1× and 3×CEL-2000 vaccinated groups on day 0 and 7.

cytokines = experiment: Serum cytokines after immunization (Ray Biotech protein microarrays); type: in vivo, A/J mice; details: unmodified J ICBL emulsified in Seppic ISA51
Protocol: The outcome of the immune response to vaccines is likely at least in part determined by the cytokines elicited by the immunization. Cytokines elicited by immunization of A/J mice with either the J, JgD or JH peptides emulsified in Seppic ISA51 were evaluated from serum obtained on days 3, 10 and 24 after immunization using Ray Biotech protein microarrays. […] IL12 is produced by DCs and macrophages and promotes the development of Th1 responses which are characterized by production of IL2 and IFN-γ. […] L.E.A.P.S. conjugates ex vivo studies

[3] = system: vaccine peptides, collagen or citrulline or components used to make vaccines; details: mouse, in vivo
Protocol: The fifth study is for the CIA-model CEL-2000 vaccination serum antibodies (study 4.5). Antibody production to the vaccine peptides, collagen or citrulline or components used to make vaccines were evaluated in mouse sera from the previous two sets of studies. As expected, all sera recognized the bovine collagen molecule used to induce the disease. Neither the dose, amount of vaccine, nor timing of vaccination seemed to affect the titer or isotype. […] No antibodies were detected with reactivity to the citrulline using a citrulline fibrin peptide substrate in the ELISA. […] (data not shown) L.E.A.P.S. conjugates serum cytokine studies

Row | Substance | progression of disease, as indicated by AI scores ([1]; study 4.1) | disease pathology compared statistically with untreated CIA mice [2] | histopathology: bone resorption [2] | histopathology: cartilage damage [2] | histopathology: inflammation [2] | histopathology: pannus [2] | effectiveness in the murine CIA model of RA relative to SEQ ID NO. 99 [1] | also measured
1 | DLLKNGERIEKVEGGGTGGKPGIAGFKGEQGPKGEP (Completely synthesized peptide construct) [CEL-2000, peptide J combined with the human type II collagen peptide 254-273] | limited the progression of disease | statistically had less disease pathology | less bone resorption in fewer digit joints | minimal | mild | minimal | – | AI scores, reduction compared with other conjugates ([1]; study 4.1, 33 nmoles, versus CEL-2001 or CEL-2002): reduced to a greater extent than was seen with other conjugates; progression of disease over the experimental period ([1]; study 4.2, 100 nmol dose (3× treatment) on days 0 and 7): appeared to limit the progression of disease throughout the experimental period; progression of arthritis disease compared with Enbrel ([1]; study 4.2, 2 doses of 33 or 100 nmol subcutaneously on days 0 and 7 or 0 and 14, Enbrel every other day for 28 days): at least as good as those of mice treated with Enbrel; Joint thickening, redness, immobilization of joints in a digit or total paw ([1]; study 4.2, each of the 4 paws): reduced; progression of disease, as indicated by reduced AI scores ([1]; study 4.2, treatment started when group score was 3.5): limited the progression of disease; duration of effect versus Enbrel ([2]; 2 vaccinations at 100 nmol, 28 day period): more lasting effect than the multiple Enbrel treatments; protection by all 4 histopathology criteria (group ranking) ([2]; 3× (100 nmol) on days 0 and 7, FIG. 4): best protected group (least diseased) by all 4 criteria
2 | DLLKNGERIEKVEGGG [J] | – | – | – | – | – | – | – | most remarkable change in cytokine levels upon immunization (cytokines): reduction in IL10 levels
3 | Enbrel [reference compound] | slightly more effective than the vaccine | not statistically different from untreated CIA mice | minimal | mild | mild | minimal | – | antibodies to Enbrel in sera [3]: antibodies could be detected
4 | DGQEEKAGVVSTGLI-GGGGS-TGGKPGIAGFKGEQGPKGEP (DGQEEKAGVVSTGLIGGGGSTGGKPGIAGFKGEQGPKGEP; Completely synthesized peptide construct) [CEL-2001] | – | – | – | – | – | – | less effective | –
5 | TGGKPGIAGFKGEQGPKGEP ((254)..(273) Type II Collagen; listed as Homo sapiens) [CEL-2002] | – | – | – | – | – | – | less effective | –
